Values quoted from earlier work, collected in patent US10058559B2, “Treatment or prevention of an intestinal disease or disorder” (The United States of America, as represented by the …, priority 2014, dated 2018).

Key:
GAK = target: T1, GAK (Homo sapiens, UniProt O14976); conditions: 185-kinase panel; cited from earlier work
T1 sequence (O14976 1-1311): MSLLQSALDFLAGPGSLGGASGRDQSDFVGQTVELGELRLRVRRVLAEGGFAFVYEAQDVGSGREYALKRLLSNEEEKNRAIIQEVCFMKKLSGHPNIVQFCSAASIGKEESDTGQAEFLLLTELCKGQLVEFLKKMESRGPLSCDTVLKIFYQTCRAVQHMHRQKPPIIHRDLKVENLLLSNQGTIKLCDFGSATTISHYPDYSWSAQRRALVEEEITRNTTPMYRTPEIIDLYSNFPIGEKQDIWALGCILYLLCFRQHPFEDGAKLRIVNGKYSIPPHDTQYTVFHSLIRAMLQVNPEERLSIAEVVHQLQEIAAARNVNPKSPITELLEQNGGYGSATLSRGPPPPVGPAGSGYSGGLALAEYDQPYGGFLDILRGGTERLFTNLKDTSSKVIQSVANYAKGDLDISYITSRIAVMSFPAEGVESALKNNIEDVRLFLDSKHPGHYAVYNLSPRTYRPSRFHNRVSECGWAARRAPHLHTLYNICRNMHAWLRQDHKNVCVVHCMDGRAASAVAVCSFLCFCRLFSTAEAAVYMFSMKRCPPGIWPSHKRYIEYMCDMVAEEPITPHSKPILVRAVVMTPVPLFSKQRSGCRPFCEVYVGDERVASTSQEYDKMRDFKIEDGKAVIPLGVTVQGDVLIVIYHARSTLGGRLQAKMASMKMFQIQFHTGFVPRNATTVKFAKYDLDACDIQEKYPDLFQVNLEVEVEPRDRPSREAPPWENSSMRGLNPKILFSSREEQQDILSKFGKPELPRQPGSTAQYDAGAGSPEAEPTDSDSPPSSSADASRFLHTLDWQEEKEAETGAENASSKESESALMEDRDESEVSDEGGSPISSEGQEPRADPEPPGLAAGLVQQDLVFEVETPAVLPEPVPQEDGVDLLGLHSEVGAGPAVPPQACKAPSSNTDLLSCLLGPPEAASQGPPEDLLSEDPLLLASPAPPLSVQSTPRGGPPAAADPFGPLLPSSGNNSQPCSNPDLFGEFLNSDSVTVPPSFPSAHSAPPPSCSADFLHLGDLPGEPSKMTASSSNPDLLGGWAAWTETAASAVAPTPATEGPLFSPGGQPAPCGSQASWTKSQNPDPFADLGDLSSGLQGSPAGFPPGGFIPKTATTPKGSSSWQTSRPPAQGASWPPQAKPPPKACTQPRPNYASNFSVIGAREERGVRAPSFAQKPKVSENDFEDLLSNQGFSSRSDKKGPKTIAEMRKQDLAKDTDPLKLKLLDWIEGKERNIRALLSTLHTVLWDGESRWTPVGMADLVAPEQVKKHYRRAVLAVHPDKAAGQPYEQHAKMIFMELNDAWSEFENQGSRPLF

CAMKK2 = CAMKK2 (Homo sapiens, UniProt Q96RR4); conditions: 185-kinase panel; cited from earlier work
[1] = in vivo; cited from earlier work
TNK1 = target: T2, TNK1 (Homo sapiens, UniProt Q13470); conditions: 185-kinase panel; cited from earlier work
T2 sequence (Q13470 1-666): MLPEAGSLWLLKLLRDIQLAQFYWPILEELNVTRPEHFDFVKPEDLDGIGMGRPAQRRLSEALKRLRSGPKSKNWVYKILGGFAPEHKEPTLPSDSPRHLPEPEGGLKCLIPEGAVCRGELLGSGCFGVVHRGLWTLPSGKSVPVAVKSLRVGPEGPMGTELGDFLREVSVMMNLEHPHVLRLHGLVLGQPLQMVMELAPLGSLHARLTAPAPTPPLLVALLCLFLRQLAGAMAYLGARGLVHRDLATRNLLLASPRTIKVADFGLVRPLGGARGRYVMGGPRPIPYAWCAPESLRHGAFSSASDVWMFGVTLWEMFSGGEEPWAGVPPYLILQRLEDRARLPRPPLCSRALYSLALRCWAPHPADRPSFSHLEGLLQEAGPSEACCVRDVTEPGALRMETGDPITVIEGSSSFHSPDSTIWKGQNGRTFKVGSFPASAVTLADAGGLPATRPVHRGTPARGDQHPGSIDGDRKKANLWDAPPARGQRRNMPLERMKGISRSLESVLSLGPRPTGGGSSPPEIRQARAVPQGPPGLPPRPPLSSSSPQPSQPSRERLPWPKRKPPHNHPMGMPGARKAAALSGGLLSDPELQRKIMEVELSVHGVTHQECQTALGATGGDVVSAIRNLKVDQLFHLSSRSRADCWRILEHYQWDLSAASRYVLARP

PLK4 = target: T3, PLK4 (Homo sapiens, UniProt O00444); conditions: 185-kinase panel; cited from earlier work
T3 sequence (O00444 1-970): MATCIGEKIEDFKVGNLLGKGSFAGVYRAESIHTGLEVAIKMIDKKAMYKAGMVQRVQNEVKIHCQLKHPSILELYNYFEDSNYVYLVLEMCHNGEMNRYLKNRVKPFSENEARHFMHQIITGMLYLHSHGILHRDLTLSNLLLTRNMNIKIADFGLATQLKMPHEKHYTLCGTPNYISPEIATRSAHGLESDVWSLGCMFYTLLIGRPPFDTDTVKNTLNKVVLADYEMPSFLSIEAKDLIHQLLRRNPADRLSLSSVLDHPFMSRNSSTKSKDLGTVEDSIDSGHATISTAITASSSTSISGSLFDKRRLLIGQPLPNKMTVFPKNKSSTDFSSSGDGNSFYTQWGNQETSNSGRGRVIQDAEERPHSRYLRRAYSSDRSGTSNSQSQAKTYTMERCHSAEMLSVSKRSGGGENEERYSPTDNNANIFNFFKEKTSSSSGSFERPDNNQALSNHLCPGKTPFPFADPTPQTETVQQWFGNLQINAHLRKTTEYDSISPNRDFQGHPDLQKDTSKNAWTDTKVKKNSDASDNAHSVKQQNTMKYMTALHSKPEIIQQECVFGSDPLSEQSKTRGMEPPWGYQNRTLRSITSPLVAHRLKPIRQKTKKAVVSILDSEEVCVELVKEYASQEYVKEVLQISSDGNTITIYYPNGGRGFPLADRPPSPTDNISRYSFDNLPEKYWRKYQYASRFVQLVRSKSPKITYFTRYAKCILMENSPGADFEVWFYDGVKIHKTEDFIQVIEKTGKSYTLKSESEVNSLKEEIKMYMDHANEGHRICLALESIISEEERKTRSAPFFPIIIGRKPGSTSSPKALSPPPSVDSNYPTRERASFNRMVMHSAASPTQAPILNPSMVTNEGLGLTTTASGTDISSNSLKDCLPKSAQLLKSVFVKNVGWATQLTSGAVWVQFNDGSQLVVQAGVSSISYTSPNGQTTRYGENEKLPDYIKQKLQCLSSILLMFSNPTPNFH

PIP4K2C = target: T4, PIP4K2C (Homo sapiens, UniProt Q8TBX8); conditions: 185-kinase panel; cited from earlier work
T4 sequence (Q8TBX8 1-421): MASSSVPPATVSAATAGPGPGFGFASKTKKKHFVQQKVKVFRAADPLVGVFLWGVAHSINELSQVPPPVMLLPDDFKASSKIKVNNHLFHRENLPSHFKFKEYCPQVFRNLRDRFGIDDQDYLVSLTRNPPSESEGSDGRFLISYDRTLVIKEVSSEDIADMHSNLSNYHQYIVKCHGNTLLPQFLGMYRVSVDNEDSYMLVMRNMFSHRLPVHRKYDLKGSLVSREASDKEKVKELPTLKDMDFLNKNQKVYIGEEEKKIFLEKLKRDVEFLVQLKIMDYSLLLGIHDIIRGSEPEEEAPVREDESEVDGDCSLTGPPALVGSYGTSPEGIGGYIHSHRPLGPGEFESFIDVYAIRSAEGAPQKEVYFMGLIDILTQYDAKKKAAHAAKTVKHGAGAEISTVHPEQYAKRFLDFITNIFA

CAMKK2, sequence (Q96RR4 whole entry, species assumed): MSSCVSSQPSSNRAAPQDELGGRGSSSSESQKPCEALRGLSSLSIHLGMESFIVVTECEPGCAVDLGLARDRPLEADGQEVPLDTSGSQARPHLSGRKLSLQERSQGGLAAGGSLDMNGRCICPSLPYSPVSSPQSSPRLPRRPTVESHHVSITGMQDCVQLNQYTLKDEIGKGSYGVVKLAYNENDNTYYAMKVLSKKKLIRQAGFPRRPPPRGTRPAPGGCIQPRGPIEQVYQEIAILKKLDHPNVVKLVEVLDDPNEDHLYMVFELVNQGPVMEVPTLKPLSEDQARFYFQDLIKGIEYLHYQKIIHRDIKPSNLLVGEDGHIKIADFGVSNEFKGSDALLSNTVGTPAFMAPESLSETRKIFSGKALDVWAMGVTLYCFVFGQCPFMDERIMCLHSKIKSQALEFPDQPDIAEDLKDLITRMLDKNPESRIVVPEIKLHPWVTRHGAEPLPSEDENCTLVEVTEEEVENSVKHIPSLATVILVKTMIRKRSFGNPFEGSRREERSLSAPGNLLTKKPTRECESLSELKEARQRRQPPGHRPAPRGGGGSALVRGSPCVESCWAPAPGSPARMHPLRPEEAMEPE

SMILES: COc1cc(N2CCOCC2)ccc1Nc1ncc(F)c(Nc2ccccc2NS(C)(=O)=O)n1.Cl [CZC-25146, N-(2-(5-Fluoro-2-(2-methoxy-4-morpholinophenylamino)pyrimidin-4-ylamino)phenyl)methanesulfonamide, HCl]
- IC50 (GAK): < 300 nM
- IC50 (CAMKK2): < 300 nM
- oral bioavailability [1]: orally bioavailable
- IC50 (TNK1): < 300 nM
- IC50 (PLK4): < 300 nM
- IC50 (PIP4K2C): < 300 nM
